Calls of active or inactive are those of the source. The calls are words filed in the database; no cut-off is given here.
Key:
Mus musculus [1] = experiment: Toxicity in ICR-SCID mouse heart assessed as […] level at 100 mg/kg administered 3 times per week for 4 weeks measured after 24 hrs of last dose relative to untreated control; type: organism-based; parameters: dose 100 mg/kg; conditions: in vivo
PC-3 = experiment: Growth inhibition of human PC3 cells assessed as ATP level after 4 days; type: functional, cell-based
[2] = Half life in ICR-SCID mouse; type: ADME, organism-based; conditions: in vivo
[3] = Drug level in tumor of human BT474 cells xenografted in ICR-SCID mouse at 100 mg/kg, ip administered after 3 weeks tumor implantation measured after 6 hrs; type: ADME, organism-based, Neoplasm, BT-474; parameters: dose 100 mg/kg, route intraperitoneal; conditions: tumor (human BT474 xenograft), read-out: Drug uptake
[4] = Drug level in tumor of human BT474 cells xenografted in ICR-SCID mouse at 100 mg/kg, ip administered after 3 weeks tumor implantation measured after 12 hrs; type: ADME, organism-based, Neoplasm, BT-474; parameters: dose 100 mg/kg, route intraperitoneal; conditions: tumor (human BT474 xenograft), read-out: Drug uptake
[5] = Drug level in tumor of human BT474 cells xenografted in ICR-SCID mouse at 100 mg/kg, ip administered after 3 weeks tumor implantation measured after 24 hrs; type: ADME, organism-based, Neoplasm, BT-474; parameters: dose 100 mg/kg, route intraperitoneal; conditions: tumor (human BT474 xenograft), read-out: Drug uptake
[6] = Drug level in tumor of human BT474 cells xenografted in ICR-SCID mouse at 100 mg/kg, ip administered after 3 weeks tumor implantation measured after 48 hrs; type: ADME, organism-based, Neoplasm, BT-474; parameters: dose 100 mg/kg, route intraperitoneal; conditions: tumor (human BT474 xenograft), read-out: Drug uptake
[7] = Drug level in tumor of human BT474 cells xenografted in ICR-SCID mouse at 150 mg/kg, ip administered after 3 weeks tumor implantation measured after 24 hrs; type: ADME, organism-based, Neoplasm, BT-474; parameters: dose 150 mg/kg, route intraperitoneal; conditions: tumor (human BT474 xenograft), read-out: Drug uptake
Mus musculus [8] = experiment: Hepatotoxicity in ICR-SCID mouse liver assessed as hematopoietic cell differentiation administered 3 times per week for 4 weeks measured after 24 hrs of last dose; type: toxicity, organism-based; conditions: in vivo
BT-474 [9] = experiment: Growth inhibition of human BT474 cells assessed as ATP level after 4 days; type: functional; conditions: BT-474, 96 h
[10] = Growth inhibition of human MDA231 cells assessed as ATP level after 4 days; type: functional; conditions: MDA-MB-231, 96 h
NCI-N87 = experiment: Growth inhibition of human NCI-N87 cells assessed as ATP level after 4 days; type: functional; conditions: NCI-N87, 96 h
MV4-11 = experiment: Growth inhibition of human MV4-11 cells assessed as ATP level after 4 days; type: functional; conditions: MV4-11, 96 h
NCI-H1975 [11] = experiment: Growth inhibition of human tarceva and iressa-resistant NCI-H1975 cells assessed as ATP level after 4 days; type: functional; conditions: NCI-H1975, 96 h
[12] = Growth inhibition of human A172 cells assessed as ATP level after 4 days; type: functional; conditions: A 172, 96 h
[13] = Solubility in water; type: physicochemical; conditions: buffer
HCC827 [14] = experiment: Induction of mutant Met degradation in human tarceva and iressa-resistant HCC827 cells at 20 to 500 nM by Western blotting; type: functional, cell-based
HCC827 [15] = experiment: Induction of mutant p-Akt degradation in human tarceva and iressa-resistant HCC827 cells at 20 to 500 nM by Western blotting; type: functional, cell-based
NCI-H1975 [16] = experiment: Induction of mutant c-Raf degradation in human tarceva and iressa-resistant NCI-H1975 cells at 20 to 500 nM by Western blotting; type: functional, cell-based
NCI-H1975 [17] = experiment: Induction of mutant Cdk4 degradation in human tarceva and iressa-resistant NCI-H1975 cells at 20 to 500 nM by Western blotting; type: functional, cell-based
[18] = Bioavailability in […] dosed mouse; type: ADME, organism-based; conditions: in vivo
[19] = Oral bioavailability in mouse; type: ADME, organism-based; conditions: in vivo
[20] = Drug level in tumor of human BT474 cells xenografted in ICR-SCID mouse at 200 mg/kg, ip administered after 3 weeks tumor implantation measured after 12 hrs; type: ADME, organism-based, Neoplasm, BT-474; parameters: dose 200 mg/kg, route intraperitoneal; conditions: tumor (human BT474 xenograft), read-out: Drug uptake
[21] = Drug level in tumor of human BT474 cells xenografted in ICR-SCID mouse at 200 mg/kg, ip administered after 3 weeks tumor implantation measured after 24 hrs; type: ADME, organism-based, Neoplasm, BT-474; parameters: dose 200 mg/kg, route intraperitoneal; conditions: tumor (human BT474 xenograft), read-out: Drug uptake
BT-474 [22] = experiment: Induction of HER2 degradation in human BT474 cells xenografted in ICR-SCID mouse at 100 mg/kg, ip administered after 3 weeks tumor implantation after 6 to 48 hrs by Western blotting; type: functional, organism-based; parameters: dose 100 mg/kg
BT-474 [23] = experiment: Induction of p-HER2 degradation in human BT474 cells xenografted in ICR-SCID mouse at 100 mg/kg, ip administered after 3 weeks tumor implantation after 6 to 48 hrs by Western blotting; type: functional, organism-based; parameters: dose 100 mg/kg
BT-474 [24] = experiment: Induction of p-AKT degradation in human BT474 cells xenografted in ICR-SCID mouse at 100 mg/kg, ip administered after 3 weeks tumor implantation after 6 to 48 hrs by Western blotting; type: functional, organism-based; parameters: dose 100 mg/kg
BT-474 [25] = experiment: Induction of AKT degradation in human BT474 cells xenografted in ICR-SCID mouse at 100 mg/kg, ip administered after 3 weeks tumor implantation after 6 to 48 hrs by Western blotting; type: functional, organism-based; parameters: dose 100 mg/kg
BT-474 [26] = experiment: Induction of c-Raf degradation in human BT474 cells xenografted in ICR-SCID mouse at 100 mg/kg, ip administered after 3 weeks tumor implantation after 6 to 48 hrs by Western blotting; type: functional, organism-based; parameters: dose 100 mg/kg
BT-474 [27] = experiment: Induction of Cyclin D degradation in human BT474 cells xenografted in ICR-SCID mouse at 100 mg/kg, ip administered after 3 weeks tumor implantation after 6 to 48 hrs by Western blotting; type: functional, organism-based; parameters: dose 100 mg/kg
BT-474 [28] = experiment: Induction of Cdk4 degradation in human BT474 cells xenografted in ICR-SCID mouse at 100 mg/kg, ip administered after 3 weeks tumor implantation after 6 to 48 hrs by Western blotting; type: functional, organism-based; parameters: dose 100 mg/kg
BT-474 [29] = experiment: Induction of HSP70 degradation in human BT474 cells xenografted in ICR-SCID mouse at 100 mg/kg, ip administered after 3 weeks tumor implantation after 6 to 48 hrs by Western blotting; type: functional, organism-based; parameters: dose 100 mg/kg
Mus musculus [30] = experiment: Hepatotoxicity in ICR-SCID mouse liver assessed as alanine aminotransferase level at 100 mg/kg administered 3 times per week for 4 weeks measured after 24 hrs of last dose relative to untreated control; type: toxicity, organism-based; parameters: dose 100 mg/kg; conditions: in vivo
Mus musculus [31] = experiment: Hepatotoxicity in ICR-SCID mouse liver assessed as alanine aminotransferase level at 150 mg/kg administered 3 times per week for 4 weeks measured after 24 hrs of last dose relative to untreated control; type: toxicity, organism-based; parameters: dose 150 mg/kg; conditions: in vivo
Mus musculus [32] = experiment: Hepatotoxicity in ICR-SCID mouse liver assessed as aspartate aminotransferase level at 100 mg/kg administered 3 times per week for 4 weeks measured after 24 hrs of last dose relative to untreated control; type: toxicity, organism-based; parameters: dose 100 mg/kg; conditions: in vivo
Mus musculus [33] = experiment: Hepatotoxicity in ICR-SCID mouse liver assessed as alkaline phosphatase level at 100 mg/kg administered 3 times per week for 4 weeks measured after 24 hrs of last dose relative to untreated control; type: toxicity, organism-based; parameters: dose 100 mg/kg; conditions: in vivo
Mus musculus [34] = experiment: Hepatotoxicity in ICR-SCID mouse liver assessed as alkaline phosphatase level at 150 mg/kg administered 3 times per week for 4 weeks measured after 24 hrs of last dose relative to untreated control; type: toxicity, organism-based; parameters: dose 150 mg/kg; conditions: in vivo
Mus musculus [35] = experiment: Toxicity in ICR-SCID mouse kidney assessed as BUN level at 100 mg/kg administered 3 times per week for 4 weeks measured after 24 hrs of last dose relative to untreated control; type: organism-based; parameters: dose 100 mg/kg; conditions: in vivo
Mus musculus [36] = experiment: Toxicity in ICR-SCID mouse kidney assessed as BUN level at 150 mg/kg administered 3 times per week for 4 weeks measured after 24 hrs of last dose relative to untreated control; type: organism-based; parameters: dose 150 mg/kg; conditions: in vivo
Mus musculus [37] = experiment: Toxicity in ICR-SCID mouse kidney assessed as creatinine level at 100 mg/kg administered 3 times per week for 4 weeks measured after 24 hrs of last dose relative to untreated control; type: organism-based; parameters: dose 100 mg/kg; conditions: in vivo

O=C1OCC/C=C/CC/C=C/C(=N/OCC(=O)N2CCCCC2)Cc2c(Cl)c(O)cc(O)c21 [POCHOXIME A]
Activity (Mus musculus [1]): 15.2 U/L | Activity (PC-3): Active | half-life [2]: 2.5 h | concentration at 6 h [3]: 5490 ng/g | concentration at 12 h [4]: 5250 ng/g | concentration at 24 h [5]: 4020 ng/g | concentration at 48 h [6]: 1500 ng/g | concentration at 24 h [7]: 7930 ng/g | Activity (Mus musculus [8]): Not Active | GI50 (BT-474 [9]): 7 nM | GI50 [10]: 7 nM | GI50 (NCI-N87): 4 nM | GI50 (MV4-11): 3 nM | GI50 (NCI-H1975 [11]): 25 nM | GI50 [12]: 42 nM | solubility [13]: Insoluble | Activity (HCC827 [14]): Active | Activity (HCC827 [15]): Active | Activity (NCI-H1975 [16]): Active | Activity (NCI-H1975 [17]): Active | bioavailability [18]: 60.5% | bioavailability [19]: 3.4% | concentration at 12 h [20]: 8920 ng/g | concentration at 24 h [21]: 10200 ng/g | Activity (BT-474 [22]): Active | Activity (BT-474 [23]): Active | Activity (BT-474 [24]): Active | Activity (BT-474 [25]): Active | Activity (BT-474 [26]): Active | Activity (BT-474 [27]): Active | Activity (BT-474 [28]): Active | Activity (BT-474 [29]): Active | Activity (Mus musculus [30]): 19.3 U/L | Activity (Mus musculus [31]): 12 U/L | Activity (Mus musculus [32]): 88.7 U/L | Activity (Mus musculus [33]): 51.3 U/L | Activity (Mus musculus [34]): 67.5 U/L | Activity (Mus musculus [35]): 20 mg/dL | Activity (Mus musculus [36]): 19 mg/dL | Activity (Mus musculus [37]): 0.2 mg/dL

From ChEMBL document CHEMBL1153018, “Synthesis of pochoxime prodrugs as potent HSP90 inhibitors” (Bioorg Med Chem Lett, 2009)
